Experimental data taken from EPA's ToxRefDB 2.

Key:
mouse = details: Combined chronic toxicity/carcinogenicity; other; Oral; Feed; dose end: 24 month; group: systemic; systemic / clinical chemistry / alanine aminotransferase (alt/sgpt) / alanine aminotransferase (alt/sgpt) + systemic / clinical chemistry / …
rat [1] = details: Subchronic oral toxicity in rodents, sprague dawley, Feed, dose end: 13 week, group: systemic
dog [2] = details: Subchronic oral toxicity in nonrodent, beagle, Feed, dose end: 90 day, group: systemic, systemic / clinical chemistry / alkaline phosphatase (alp/alk) / alkaline phosphatase (alp/alk) + systemic / in life observation / body …
rat [3] = details: Prenatal developmental toxicity study, other, Oral, Gavage/Intubation, dose end: 15 GD
rat [4] = details: Combined chronic toxicity/carcinogenicity; other; Oral; Feed; dose end: 2 year; group: systemic; systemic / clinical chemistry / alanine aminotransferase (alt/sgpt) / alanine aminotransferase (alt/sgpt) + systemic / clinical chemistry / …
dog [5] = details: Chronic toxicity, beagle, Oral, Feed, dose end: 104 week, group: systemic
rat [6] = details: Subchronic oral toxicity in rodents, wistar, Feed, dose end: 3 month, group: systemic
dog [7] = details: Sub-acute repeat dose toxicity, beagle, Oral, Capsule, dose end: 5 week, group: systemic
dog [8] = details: Other (NonGuideline or Guideline Not Listed); beagle; Oral; Capsule; dose end: 3 day; group: cannot be grouped; systemic / in life observation / clinical signs / emesis
dog [9] = details: Sub-acute repeat dose toxicity; beagle; Oral; Gavage/Intubation; dose end: 29 day; group: systemic; systemic / in life observation / clinical signs / defecation (diarrhea) + systemic / in life observation / clinical signs / emesis + …
dog [10] = details: Sub-acute repeat dose toxicity, beagle, Oral, Gavage/Intubation, dose end: 7 day, group: systemic
rat [11] = details: Sub-acute repeat dose toxicity, sprague dawley, Oral, Gavage/Intubation, dose end: 29 day, group: systemic
rat [12] = details: Sub-acute repeat dose toxicity, sprague dawley, Oral, Gavage/Intubation, dose end: 13 day, group: systemic
[13] = systemic / clinical chemistry / fatty acids / non-esterified (free) fatty acids + systemic / clinical chemistry / triglycerides / …
[14] = group: developmental, developmental / developmental malformation / bone / full supernumerary
[15] = group: developmental, developmental / developmental malformation / bone / full supernumerary + developmental / developmental malformation / kidney / dilated renal…
[16] = group: maternal, systemic / in life observation / body weight / body weight gain + systemic / in life observation / clinical signs / alopecia + systemic / in…
[17] = systemic / clinical chemistry / aminopyrine-n-demethylase / aminopyrine-n-demethylase
[18] = systemic / clinical chemistry / aminopyrine-n-demethylase / aminopyrine-n-demethylase + systemic / clinical chemistry / cytochrome p450, nos…
[19] = systemic / clinical chemistry / glutamate dehydrogenase / glutamate dehydrogenase
[20] = systemic / clinical chemistry / glutamate dehydrogenase / glutamate dehydrogenase + systemic / clinical chemistry / cholesterol / …
[21] = systemic / clinical chemistry / cholesterol / cholesterol + systemic / hematology / erythrocyte (rbc) count differential / erythrocyte (rbc…
[22] = systemic / pathology microscopic / testes / degeneration
[23] = systemic / in life observation / body weight / body weight + systemic / in life observation / food consumption / food consumption + systemic…
[24] = systemic / in life observation / clinical signs / emesis
[25] = systemic / in life observation / clinical signs / salivation + systemic / organ weight / liver / absolute + systemic / in life observation…
[26] = systemic / in life observation / body weight / body weight + systemic / in life observation / clinical signs / lacrimation + systemic / in …
[27] = systemic / organ weight / kidney / absolute + systemic / organ weight / liver / absolute + systemic / organ weight / spleen / absolute + …

CC(C)(C)C(O)C(Oc1ccc(Cl)cc1)n1cncn1 (stereo unspecified) [Triadimenol]
LEL (mouse): 71.4 mg/kg/day | LOAEL (mouse): 71.4 mg/kg/day | NEL (mouse): 17.9 mg/kg/day | NOAEL (mouse): 17.9 mg/kg/day | LOAEL (rat [1]; [13]): 208 mg/kg/day | NEL (rat [1]; [13]): 8 mg/kg/day | NOAEL (rat [1]; [13]): 39.6 mg/kg/day | LEL (rat [1]; systemic / organ weight / liver / absolute + systemic / organ weight / liver / relative to body weight + systemic / pathology microscopic / …): 39.6 mg/kg/day | LEL (dog [2]): 44.2 mg/kg/day | LOAEL (dog [2]): 44.2 mg/kg/day | NEL (dog [2]): < 44.2 mg/kg/day | NOAEL (dog [2]): < 44.2 mg/kg/day | LEL (rat [3]; [14]): 60 mg/kg/day | LOAEL (rat [3]; [14]): 60 mg/kg/day | NEL (rat [3]; [15]): 25 mg/kg/day | NOAEL (rat [3]; [15]): 25 mg/kg/day | LOAEL (rat [3]; group: maternal, systemic / in life observation / body weight / body weight gain): 15 mg/kg/day | NEL (rat [3]; [16]): 5 mg/kg/day | NOAEL (rat [3]; [16]): 5 mg/kg/day | LEL (rat [3]; group: maternal, systemic / in life observation / body weight / body weight gain + systemic / in life observation / food consumption / food consumption): 15 mg/kg/day | LEL (rat [4]): 25 mg/kg/day | LOAEL (rat [4]): 25 mg/kg/day | NEL (rat [4]): 6.25 mg/kg/day | NOAEL (rat [4]): 6.25 mg/kg/day | LEL (dog [5]; [17]): 211 mg/kg/day | LOAEL (dog [5]; [17]): 211 mg/kg/day | NEL (dog [5]; [18]): 56 mg/kg/day | NOAEL (dog [5]; [18]): 56 mg/kg/day | LEL (rat [6]; [19]): 30 mg/kg/day | LOAEL (rat [6]; [19]): 30 mg/kg/day | NEL (rat [6]; [20]): 7.5 mg/kg/day | NOAEL (rat [6]; [20]): 7.5 mg/kg/day

NC(=O)c1nc(-c2cccc(-c3cc(F)ccc3OCC(F)(F)C(F)(F)F)c2)n[n-]1.O.[K+] [MK-274]
LOAEL (dog [7]; [21]): > 450 mg/kg/day | NOAEL (dog [7]; [21]): ≥ 450 mg/kg/day | LEL (dog [7]; [22]): 10 mg/kg/day | NEL (dog [7]; [22]): < 10 mg/kg/day | LEL (dog [8]): 240 mg/kg/day | LOAEL (dog [8]): > 400 mg/kg/day | NEL (dog [8]): < 240 mg/kg/day | NOAEL (dog [8]): ≥ 400 mg/kg/day

CN[C@H]1CC[C@@H](c2ccc(Cl)c(Cl)c2)c2ccc(S(N)(=O)=O)cc21
LEL (dog [9]): 5 mg/kg/day | LOAEL (dog [9]): > 60 mg/kg/day | NEL (dog [9]): < 5 mg/kg/day | NOAEL (dog [9]): ≥ 60 mg/kg/day | LOAEL (dog [10]; [23]): > 160 mg/kg/day | NOAEL (dog [10]; [23]): ≥ 160 mg/kg/day | LEL (dog [10]; [24]): 40 mg/kg/day | NEL (dog [10]; [24]): 20 mg/kg/day | NEL (rat [11]; systemic / in life observation / clinical signs / salivation + systemic / organ weight / liver / absolute): 20 mg/kg/day | LEL (rat [11]; [25]): 60 mg/kg/day | LOAEL (rat [11]; [25]): > 60 mg/kg/day | NOAEL (rat [11]; [25]): ≥ 60 mg/kg/day | LOAEL (rat [12]; [26]): > 320 mg/kg/day | NOAEL (rat [12]; [26]): ≥ 320 mg/kg/day | LEL (rat [12]; [27]): 40 mg/kg/day | NEL (rat [12]; [27]): < 40 mg/kg/day
